{"source": "patent US6759522B2", "about": "“Sulforhamnosylacyglycerol derivatives and use thereof as medicaments” (Toyo Suisan Kaisha, Ltd., priority 1999, dated 2004)", "key": {"[1]": {"tested_on": "Colon cancer cells DLD-1", "test": "Assay 3: anticancer activity against cultured colon cancer cells (MTT assay)", "type": "cell-based", "conditions": "Homo sapiens, DLD-1, 48 hour cultivation", "description": "An assay on anticancer activity against cultured colon cancer cells was carried out in the following manner.\n(§1) Colon cancer cells DLD-1 were maintained and subcultured in RPMI 1640 medium (containing 10% calf serum). Each of the test compounds (SRAG1 to SRAG3 shown in Table 1) was suspended and diluted in the medium, and then the cancer cells were cultivated together with the medium in a 96-well plate at 3×10^3 cells/well. After 48 hour cultivation, the MTT assay (Mosmann, T: Journal of Immunological Method, 65, 55-63 (1983)) was carried out to compare survival rates."}, "[2]": {"tested_on": "gastric cancer cells NUGC-3", "test": "Assay 4: anticancer activity against cultured gastric cancer cells (MTT assay)", "type": "cell-based", "conditions": "Homo sapiens, NUGC-3, 48 hour cultivation", "description": "as §1\nAn assay on anticancer activity against cultured gastric cancer cells was carried out in the same manner as in the assay 3 except that gastric cancer cells NUGC-3 were used instead of the colon cancer cells DLD-1."}, "[3]": {"target": "T1, DNA polymerase β (Rattus norvegicus, UniProt P06766)", "T1 construct": "made in house; host or cells: E. coli", "test": "Assay 2: inhibitory effect against DNA polymerase β ([3H]-dTTP incorporation)", "type": "biochemical", "conditions": "for inhibitory effect against the DNA polymerase β (in words): at the tested concentrations, summary of Table 2; for IC50: recombinant rat DNA polymerase β, 0.05 U, 37° C., 60 minutes", "description": "(§2) Each mixture was added with a buffer containing inorganic salts for the enzymatic reaction, [^3H]-labeled dTTP and compounds for reaction containing a template DNA strand, and incubated at 37° C. for 60 minutes.\n(§3) After the enzymatic reaction was quenched, the resultant reaction product was fixed on a dedicated filter and subjected to measurement by a liquid scintillation counter. The amount of enzymatically incorporated dTTP was calculated as a radiation dose (cpm) of [^3H]. Note that, each of the sulforhamnosylacylglycerol derivatives is a mixture of the S- and R-configurations with respect to an absolute configuration of the carbon of the 2-position of the glycerol moiety.\nAn assay on inhibitory effect against a DNA polymerase β was carried out in the following manner.\nThe same procedure as in Assay 1 was carried out except that 0.05 U of DNA polymerase β was used in place of the DNA polymerase α. The DNA polymerase β was prepared from recombinant E. coli introduced with rat DNA polymerase β gene. In this way, the inhibitory effect of test compounds (SRAG1, SRAG2 and SRAG3 shown in Table 1 and dissolved in DMSO) against DNA polymerase : was assayed."}, "[4]": {"target": "T2, DNA polymerase α (Bos taurus, UniProt A0AAA9TD94)", "T2 construct": "from tissue; host or cells: bovine thymus", "T2 sequence (A0AAA9TD94 1-1441)": "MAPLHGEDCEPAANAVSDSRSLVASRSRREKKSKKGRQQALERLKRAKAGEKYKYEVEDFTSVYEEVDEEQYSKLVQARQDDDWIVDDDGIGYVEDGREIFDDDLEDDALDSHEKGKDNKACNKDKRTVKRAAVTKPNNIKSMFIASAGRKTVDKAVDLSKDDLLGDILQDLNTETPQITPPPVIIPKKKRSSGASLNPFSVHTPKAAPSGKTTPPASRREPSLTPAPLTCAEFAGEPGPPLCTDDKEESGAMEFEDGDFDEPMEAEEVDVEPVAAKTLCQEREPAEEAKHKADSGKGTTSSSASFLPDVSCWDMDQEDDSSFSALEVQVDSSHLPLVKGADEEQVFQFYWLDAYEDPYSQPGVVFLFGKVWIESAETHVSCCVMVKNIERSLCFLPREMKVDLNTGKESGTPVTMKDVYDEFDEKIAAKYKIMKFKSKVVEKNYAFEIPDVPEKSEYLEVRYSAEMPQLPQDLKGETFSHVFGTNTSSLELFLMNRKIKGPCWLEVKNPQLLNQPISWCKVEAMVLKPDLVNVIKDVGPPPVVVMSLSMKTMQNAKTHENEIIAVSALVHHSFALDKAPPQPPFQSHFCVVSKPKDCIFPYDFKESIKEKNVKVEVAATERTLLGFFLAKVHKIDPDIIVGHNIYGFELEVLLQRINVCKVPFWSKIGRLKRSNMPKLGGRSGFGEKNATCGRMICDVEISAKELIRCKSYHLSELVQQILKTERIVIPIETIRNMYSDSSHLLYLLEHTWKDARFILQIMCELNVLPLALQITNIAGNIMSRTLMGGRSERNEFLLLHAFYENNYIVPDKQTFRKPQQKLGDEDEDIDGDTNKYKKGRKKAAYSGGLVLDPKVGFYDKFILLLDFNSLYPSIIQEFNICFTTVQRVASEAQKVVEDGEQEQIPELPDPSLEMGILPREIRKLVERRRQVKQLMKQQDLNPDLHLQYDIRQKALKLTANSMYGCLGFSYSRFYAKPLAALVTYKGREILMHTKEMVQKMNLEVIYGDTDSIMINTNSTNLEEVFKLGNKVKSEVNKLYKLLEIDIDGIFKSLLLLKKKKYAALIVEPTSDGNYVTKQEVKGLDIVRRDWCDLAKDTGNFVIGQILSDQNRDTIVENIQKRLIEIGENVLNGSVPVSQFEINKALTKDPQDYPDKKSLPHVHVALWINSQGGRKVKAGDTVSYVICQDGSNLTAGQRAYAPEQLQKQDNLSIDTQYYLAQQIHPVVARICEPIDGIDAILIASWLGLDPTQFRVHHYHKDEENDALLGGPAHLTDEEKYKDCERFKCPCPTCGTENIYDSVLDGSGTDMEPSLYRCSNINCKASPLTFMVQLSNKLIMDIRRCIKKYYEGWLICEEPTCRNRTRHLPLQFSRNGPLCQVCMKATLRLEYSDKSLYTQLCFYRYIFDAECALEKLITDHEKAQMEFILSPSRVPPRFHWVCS", "test": "Assay 1: inhibitory effect against DNA polymerase α ([3H]-dTTP incorporation)", "type": "biochemical", "conditions": "DNA polymerase α from bovine thymus, 0.05 U, 37° C., 60 minutes", "description": "An assay on inhibitory effect against a DNA polymerase α was carried out in the following manner.\nas §2, §3"}}, "note": "Where a name gives a salt, the structure may show the parent alone.", "data": [{"smiles": "CCCCCCCCCCCCCC(=O)OCC(O)CO[C@H]1O[C@H](CS(=O)(=O)[O-])[C@@H](O)[C@H](O)[C@@H]1O.[Na+]", "note": "(stereo partly drawn) [SRAG1, 3-O-(6-deoxy-6-sulfo-α-D-mannopyranosyl)-1-O-myristoyl-glycerol sodium salt]", "values": [{"measurement": "IC50", "setting": "[1]", "result": 42.5, "unit": "µg/mL"}, {"measurement": "IC50", "setting": "[2]", "result": 45, "unit": "µg/mL"}, {"measurement": "inhibitory effect against the DNA polymerase β (in words)", "setting": "[3]", "result": "did not show an inhibitory effect"}, {"measurement": "IC50", "setting": "[3]", "result": "> 90.8", "unit": "µM"}, {"measurement": "IC50", "setting": "[4]", "result": 23.6, "unit": "µM"}]}, {"smiles": "CCCCCCCCCCCCCCCC(=O)OCC(O)CO[C@H]1O[C@H](CS(=O)(=O)[O-])[C@@H](O)[C@H](O)[C@@H]1O.[Na+]", "note": "(stereo partly drawn) [SRAG2, 3-O-(6-deoxy-6-sulfo-α-D-mannopyranosyl)-1-O-palmitoyl-glycerol sodium salt]", "values": [{"measurement": "IC50", "setting": "[1]", "result": 30, "unit": "µg/mL"}, {"measurement": "IC50", "setting": "[2]", "result": 40, "unit": "µg/mL"}, {"measurement": "inhibitory effect against the DNA polymerase β (in words)", "setting": "[3]", "result": "significant inhibitory activity"}, {"measurement": "IC50", "setting": "[3]", "result": 28.7, "unit": "µM"}, {"measurement": "IC50", "setting": "[4]", "result": 5.7, "unit": "µM"}]}, {"smiles": "CCCCCCCCCCCCCCCCCC(=O)OCC(O)CO[C@H]1O[C@H](CS(=O)(=O)[O-])[C@@H](O)[C@H](O)[C@@H]1O.[Na+]", "note": "(stereo partly drawn) [SRAG3, 3-O-(6-deoxy-6-sulfo-α-D-mannopyranosyl)-1-O-stearoyl-glycerol sodium salt]", "values": [{"measurement": "IC50", "setting": "[1]", "result": 14, "unit": "µg/mL"}, {"measurement": "IC50", "setting": "[2]", "result": 28.5, "unit": "µg/mL"}, {"measurement": "inhibitory effect against the DNA polymerase β (in words)", "setting": "[3]", "result": "significant inhibitory activity"}, {"measurement": "IC50", "setting": "[3]", "result": 11.1, "unit": "µM"}, {"measurement": "IC50", "setting": "[4]", "result": 3.3, "unit": "µM"}]}, {"smiles": "CCCCCCCCCCCCCCCCCC(=O)OCC(CO[C@H]1O[C@H](CS(=O)(=O)O)[C@@H](O)[C@H](O)[C@@H]1O)OC(=O)CCCCCCCCCCCCCCCCC", "note": "(stereo partly drawn) [SRAG4, 3-O-(6-deoxy-6-sulfo-α-D-mannopyranosyl)-1,2-di-O-stearoyl-glycerol sodium salt]", "values": [{"measurement": "IC50", "setting": "[4]", "result": 0.115, "unit": "µM"}]}]}
